In patent publication US4218474A, “Derivatives of L- and DL-4-hydroxyphenylglycine” (Pfizer Inc., priority 1977, dated 1980):
Structures can show the parent of a compound that is named as a salt. Square brackets hold non-standard residues; d marks the D form. Peptide text beside a SMILES is read from it. Hpg = N[C@H](C(=O)O)c1ccc(O)cc1

How the values were obtained:
[1] = test system: pyruvate oxidation by diaphragm tissue from fat-fed rats; test: Stimulation of pyruvate oxidation by diaphragm tissue from fat-fed rats in vitro; type: cell-based; details: Rattus norvegicus, concentration of 0.5 mmoles, L-compounds
Procedure: Representative compounds of the formula (II) have been tested for their ability to increase the oxidation of glucose and/or pyruvate as follows: Diaphragm tissue is obtained from rats fed on a high fat diet similar to `Diet B` described by Zaragoza and Felber [Horm. Metab. Res., 2, 323 (1970)]. Pyruvate oxidation by such tissue is assessed by measurement of the rate of incorporation of carbon-14 from carbon-14-labelled pyruvate into carbon dioxide in vitro, as described by Bringolf [Eur. J. Biochem., 26, 360 (1972)]. The rate of pyruvate oxidation is depressed by 50%-75% compared with that by diaphragm tissue from rats fed on a normal diet. When the L- and DL-compounds of the formula (II) are added to the medium, they are found to stimulate pyruvate oxidation by diaphragm tissue from fat-fed rats in a dose dependent manner.

[2] = test system: pyruvate dehydrogenase enzyme; test: Increase in proportion of active form of pyruvate dehydrogenase (PDHa/PDHt) in hearts of fat-fed rats in vivo; details: 0.6 mg./kg. oral or sub-cutaneous; rat hearts removed after 11/2 hours; L-compounds; placebo ratio 0.12-0.21
Procedure: The ability of compounds of formula (II) to increase the proportion of the active form of the pyruvate dehydrogenase enzyme has been measured in the following test: Rats fed on a high fat diet as in the previous test, are treated either with placebo or with the compound of formula (II) by subcutaneous or intravenous injection or by oral administration. After 11/2 hours the rat hearts are removed and homogenized under conditions which minimize changes in the proportion of the pyruvate dehydrogenase enzyme […] which is present in the active form, as described by Whitehouse and Randle [Biochem. J., 134, 651 (1973)]. The total amount of the enzyme present (PDHt) and the amount which is present in the active form (PDHa) are assessed by a method similar to that described by Taylor et al. [J. Biol. Chem., 248, 73 (1973)]. The fat-feeding process is found to depress the ratio […] from a normal value of about 0.7 to a value in the range from 0.05 to 0.2. Treatment of fat-fed rats with L- and DL-compounds of formula (II) either parenterally or orally, increases this ratio in a dose-dependent manner. The increase in the […] ratio affected by the L-compounds of formula (II) at a dosage level of 0.6 mg./kg. via the oral or sub-cutaneous route is shown in the following Table: […]

## Cl.N[C@H](C(=O)NCc1ccc(O)cc1)c1ccc(O)cc1 [Example 1, (L)-N-(4-Hydroxybenzyl)-2-amino-2-(4-Hydroxyphenyl)acetamide hydrochloride]
[1]
  activation at 500 µM: 72%
[2]
  PDHa/PDHt ratio, compound: 1.00

## CC(C)NC(=O)[C@@H](N)c1ccc(O)cc1 [Example 2, L-N-isopropyl-2-amino-2-(4-hydroxyphenyl)acetamide]
[1]
  activation at 500 µM: 108%
[2]
  PDHa/PDHt ratio, compound: 0.65

## CC(C)(C)NC(=O)[C@@H](N)c1ccc(O)cc1 [Example 3]
[1]
  activation at 500 µM: 15%
[2]
  PDHa/PDHt ratio, compound: 0.56

## C#CCNC(=O)[C@@H](N)c1ccc(O)cc1 [Example 4, L-N-propargyl-2-amino-2-(4-hydroxyphenyl)acetamide]
[1]
  activation at 500 µM: 82%
[2]
  PDHa/PDHt ratio, compound: 0.73

## N[C@H](C(=O)NC1CCCC1)c1ccc(O)cc1 [Example 5, L-N-cyclopentyl-2-amino-2-(4-hydroxyphenyl)acetamide]
[1]
  activation at 500 µM: 23%
[2]
  PDHa/PDHt ratio, compound: 0.88

## CCN(CC)CCNC(=O)[C@@H](N)c1ccc(O)cc1 [Example 6, L-N-(2-diethylamino)ethyl-2-amino-2-(4-hydroxyphenyl)acetamide]
[1]
  activation at 500 µM: 38%
[2]
  PDHa/PDHt ratio, compound: 0.78

## CNC(=O)[C@@H](N)c1ccc(O)cc1.Cl [Example 13, (L)-N-methyl-2-Amino-2-(4-hydroxyphenyl)acetamide hydrochloride]
[1]
  activation at 500 µM: 45%
[2]
  PDHa/PDHt ratio, compound: 0.55

## COCCNC(=O)[C@@H](N)c1ccc(O)cc1 [Example 14, L-N-(2-methoxyethyl)-2-amino-2-(4-hydroxyphenyl)acetamide]
[1]
  activation at 500 µM: 76%
[2]
  PDHa/PDHt ratio, compound: 0.88

## COc1ccccc1OCC(O)CNC(=O)[C@@H](N)c1ccc(O)cc1 (stereo partly shown) [Example 15]
[1]
  activation at 500 µM: 55%
[2]
  PDHa/PDHt ratio, compound: 0.25

## Cl.N[C@H](C(=O)N[C@@H](Cc1ccc(O)cc1)C(=O)O)c1ccc(O)cc1 [Example 16, N-[(L)-2-(4-Hydroxyphenyl)glycyl]-(L)-tyrosine hydrochloride] (H-[Hpg]-Tyr-OH)
[1]
  activation at 500 µM: 67%
[2]
  PDHa/PDHt ratio, compound: 0.31

## N[C@H](C(=O)NCC(=O)O)c1ccc(O)cc1 [Example 17, N-[(L)-2-(4-hydroxyphenyl)glycyl]-glycine hydrochloride dioxanate] (H-[Hpg]-Gly-OH)
[1]
  activation at 500 µM: 41%
[2]
  PDHa/PDHt ratio, compound: 0.31
